Assays:
[1] = system: LTD4 evoked ileal contractions; experiment: LTD4 antagonism: inhibition of LTD4 evoked contractions of isolated guinea pig ileum; design: species or system Male, Hartley guinea pigs; details: 5 min exposure to drug, 50% inhibition of LTD4 responses, 37° C.
Experimental: Male, Hartley guinea pigs weighing 200-450 grams were killed by decapitation. A section of terminal ileum was removed, the lumen cleaned, and the tissue divided into 2.5 cm segments. The ilea were mounted in 10 ml tissue baths containing Krebs-bicarbonate solution of the following composition in mmoles/liter: KCl, 4.6; CaCl2 ·2H2 O, 1.2; KH2 PO4, 1.2; MgSO4 ·7H2 O, 1.2; NaCl, 118.2; NaHCO3, 24.8; and dextrose, 10.0. The bath fluid was maintained at 37° C. and aerated with 95 percent oxygen and 5 percent CO2. In addition, the buffer contained 1×10^-6 M atropine to reduce ileal spontaneous activity. Isometric measurements were made with a Grass FT03C force-displacement transducer and recorded on a Grass polygraph as change in grams of force. A passive force of 0.5 g. was applied to the tissues. After an appropriate equilibration period, single submaximal control responses to pure LTD4 were obtained. Following a five minute exposure of the ileum to an experimental drug, the control concentration of LTD4 was added to the tissue bath. The response of the ileum to LTD4 in the presence of the drug was compared to the response in the absence of the drug. Various degrees of LTD4 antagonism were obtained using 2-4 different concentrations of an experimental compound on a single ileum.
Percent inhibition of LTD4 evoked ileal contractions

[2] = system: pressor response to leukotriene D4; experiment: decrease of LTD4 pressor response in pithed rats; format: in vivo, Adult male Sprague-Dawley rats; details: Rattus norvegicus, iv, 0.25 h, 15 minutes prior to leukotriene D4 challenge (10 μg/kg, i.v.); dose to decrease pressor response by 50%
Experimental: A further measure of the final product's activity is their ability to decrease the pressor response in pithed rats that are challenged by LTD4. This activity is measured by the following standard procedure
Adult male Sprague-Dawley rats, weighting approximately 300-500 grams, are anesthetized with pentobarbital sodium (60 mg/kg, i.p.). The trachea is cannulated and the rats are ventilated with room air delivered from a rodent respirator (Harvard, model 680; tidal volume of 1 ml/100 grams body weight, 60 cycles/minute). Rats are pithed by passing a steel rod through the right orbit and down the entire length of the spinal column. The rod is left in position for the duration of the experiment. Pulsatile arterial blood pressure is measured from a cannulated carotid artery using a Stathamtransducer (P231D). Mean arterial blood pressure is calculated as diastolic pressure plus 1/3 pulse pressure. Drug solutions are administered i.v. through a catheter placed in a jugular vein. Arterial blood pressure is recorded on a multichannel oscillograph (Beckman, model R511A).
Groups of pithed rats, usually 4-6/group, are pretreated i.v. with a dose of test compound or vehicle (control experiments) 15 minutes prior to leukotriene D4 challenge (10 μg/kg, i.v.). Usually 3-4 doses of the test compound are evaluated in a given study. Blood pressure responses to leukotriene D4 in control and drug-treated pithed rats are then compared and an ED50 dose of antagonist is estimated. ED50 (95% confidence interval) is the calculated dose of antagonist (mg/kg, i.v.) required to decrease the pressor response to leukotriene D4 by 50%.
The ED50 values of selected final products of Formula I are set forth below in Table 2.

SMILES | -log IC50 [1] | ED50 [2]
CCCc1c(OCCCCc2nnnn2Cc2ccc(C(=O)O)cc2)ccc(C(C)=O)c1O [Example 33, 5-[4-(4-Acetyl-3-hydroxy-2-(n-propyl)phenoxy)butyl]-1H-tetrazole-1-[para-methylenebenzoic acid]] | 6.30 | –
CCCc1c(OCCCCc2nnn(Cc3ccc(-c4nn[nH]n4)cc3)n2)ccc(C(C)=O)c1O [Example 30] | 7.54 | 16.8 mg/kg
CCCc1c(OCCCCc2nnn(CCCCCCc3nn[nH]n3)n2)ccc(C(C)=O)c1O [Example 26, 5-4-(4-Acetyl-3-hydroxy-2-(n-propyl)phenoxybutyl]-2-[6-(1H-tetrazol-5-yl)hexyl]-2H-tetrazole] | 7.63 | 18.6 mg/kg
CCCc1c(OCCCCc2nnn(CCCC(=O)O)n2)ccc(C(C)=O)c1O [Example 46, 5-[4-(4-Acetyl-3-hydroxy-2-propylphenoxy)butyl]-2H-tetrazol-2-(4-butyric acid)] | 7.12 | 8.1 mg/kg
CCCc1c(OCCCCc2nnn(CCCCCCC(=O)O)n2)ccc(C(C)=O)c1O [Example 27, 5-[4-(4-Acetyl-3-hydroxy-2-propylphenoxy)butyl]-2H-tetrazole-2-(7-heptanoicacid)] | 7.05 | 12.7 mg/kg
CCCc1c(OCCCCc2nnn(CC(=O)O)n2)ccc(C(C)=O)c1O [A] | 6.68 | > 30 mg/kg
CCCc1c(OCCCCc2nnn(CCCCc3nnn[nH]3)n2)ccc(C(C)=O)c1O [Example 23A, 5-[4-(4-Acetyl-3-hydroxy-2-(n-propyl)phenoxy)butyl]-2[4-(1H-tetrazol-5-yl)butyl]-2H-tetrazole] | 7.65 | 7.5 mg/kg
CCCc1c(OCCCc2nnnn2CC(=O)O)ccc(C(C)=O)c1O [D] | 5.95 | –
CCCc1c(OCCCCc2nnn(Cc3cccc(C(=O)O)c3)n2)ccc(C(C)=O)c1O [Example 35, 5-[4-(4-Acetyl-3-hydroxy-2-(n-propyl)phenoxy)butyl]-2H-tetrazole-2-(α-methylene-m-benzoic acid)] | 7.15 | 27.5 mg/kg
CCCc1c(OCCCCc2nnn(CCC(=O)O)n2)ccc(C(C)=O)c1O [Example 44, 5-[4-(4-Acetyl-3-hydroxy-2-propylphenoxy)butyl]-2H-tetrazol-2-(3-propionic acid)] | 6.81 | 10.6 mg/kg
CCCc1c(OCCCCCc2nnn(CCCC(=O)O)n2)ccc(C(C)=O)c1O [Example 39, 5-[5-(Acetyl-3-hydroxy-2-(n-propyl)phenoxy)pentyl]-2-[4-butanoic acid]-2H-tetrazole] | 6.37 | 25.8 mg/kg
CCCc1c(OCCCCc2nnn(CCCCCc3nnn[nH]3)n2)ccc(C(C)=O)c1O [Example 28, 5-[4-(4-Acetyl-3-hydroxy-2-(n-propyl)phenoxy)butyl]-2-[5-(1H-tetrazol-5-yl)pentyl]-2H-tetrazole] | 7.57 | 9.7 mg/kg
CCCc1c(OCCCCc2nnnn2CCC(=O)O)ccc(C(C)=O)c1O [Example 45, 5-[4-(4-Acetyl-3-hydroxy-2-(n-propyl)phenoxy)butyl]-1H-tetrazole-1-[3-propionic acid]] | 5.83 | > 30 mg/kg
CCCc1c(OCCCCCc2nnn(CCCc3nn[nH]n3)n2)ccc(C(C)=O)c1O [Example 38] | 6.62 | –
CCCc1c(OCCCCc2nnnn2CC(=O)O)ccc(C(C)=O)c1O [B] | 5.88 | > 30 mg/kg
CCCc1c(OCCCCc2nnnn2CCCC(=O)O)ccc(C(C)=O)c1O [Example 47, 5-[4-(4-Acetyl-3-hydroxy-2-(n-propyl)phenoxy)butyl]-1-[4-butanoic acid]-1H-tetrazole] | 5.89 | > 30 mg/kg
CCCc1c(OCCCCCc2nnn(CCCCc3nnn[nH]3)n2)ccc(C(C)=O)c1O [Example 40, 5-[5-(4-Acetyl-3-hydroxy-2-(n-propyl)phenoxy)pentyl]-2-[4-(1H-tetrazol-5-yl)butyl]-2H-tetrazole] | 6.83 | –
CCCc1c(OCCCCc2nnnn2CCCCC(=O)O)ccc(C(C)=O)c1O [Example 24] | 6.14 | –
CCCc1c(OCCCCCCc2nnn(CC(=O)O)n2)ccc(C(C)=O)c1O [E] | 6.83 | > 30 mg/kg
CCCc1c(OCCCc2nnn(CC(=O)O)n2)ccc(C(C)=O)c1O [C] | 5.82 | –
CCCc1c(OCCCCc2nnn(CCCCCC(=O)O)n2)ccc(C(C)=O)c1O [Example 29] | 7.35 | 8.7 mg/kg
CCCc1c(OCCCCc2nnn(Cc3cccc(-c4nnn[nH]4)c3)n2)ccc(C(C)=O)c1O [Example 34, 5-[4-(4-Acetyl-3-hydroxy-2-(n-propyl)phenoxy)butyl]-2-[meta-(1H-tetrazol-5-yl)benzyl]-2H-tetrazole] | 7.52 | 25.5 mg/kg
CCCc1c(OCCCCc2nnn(CCCc3nn[nH]n3)n2)ccc(C(C)=O)c1O [Example 25] | 7.42 | 8.4 mg/kg

The next lines start with results.

-log IC50 [1] | SMILES | ED50 [2]
7.50 | CCCc1c(Oc2ccc(-c3nnn(CCCc4nn[nH]n4)n3)cc2)ccc(C(C)=O)c1O [Example 59] | –
6.75 | CCCc1c(OCCCCCCc2nnn(CCCC(=O)O)n2)ccc(C(C)=O)c1O [Example 51, 5-[6-(4-Acetyl-3-hydroxy-2-(n-propyl)phenoxy)hexyl]-2H-tetrazole-2-[4-butanoic acid]] | 18.3 mg/kg
6.18 | CCCc1c(OCCCCn2nnnc2CCCC(=O)O)ccc(C(C)=O)c1O [Example 65, 1-4-(4-acetyl-3-hydroxy-2-(n-propylphenoxy)butyl]-1H-tetrazole-5-butanoic acid] | –
7.51 | CCCc1c(OCCCCn2nnc(CCCC(=O)O)n2)ccc(C(C)=O)c1O [Example 64, 2-[4-(4-Acetyl-3-hydroxy-2-(n-propyl)phenoxy)-butyl]-2H-tetrazole-5-butanoic acid] | –
6.3 | CCCc1c(OCCCCCc2nnn(CC(=O)O)n2)ccc(C(C)=O)c1O [G] | > 30 mg/kg
7.25 | CCCc1c(OCCCCn2nnc(Cc3ccc(C(=O)O)cc3)n2)ccc(C(C)=O)c1O [Example 67, 4-[[2-[4-(4-Acetyl-3-hydroxy-2-(n-propyl)phenoxy)butyl]-2H-tetrazol-5-yl]methyl]benzoic acid] | –
6.59 | CCCc1c(OCCCCCCc2nnnn2CC(=O)O)ccc(C(C)=O)c1O [F] | 27.1 mg/kg
7.26 | CCCc1c(Oc2ccc(-c3nnn(CCCC(=O)O)n3)cc2)ccc(C(C)=O)c1O [Example 60, 5-[para-(4-Acetyl-3-hydroxy-2-(n-propyl)phenoxy)phenyl]-2H-tetrazole-2-[4-butanoic acid]] | –
6.47 | CCCc1c(OCCCc2nnn(CCCCC(=O)O)n2)ccc(C(C)=O)c1O [Example 62, 5-[3-(4-Acetyl-3-hydroxy-2-propylphenoxy)-propyl]-2H-tetrazol-2-(5-pentanoic acid)] | –
6.66 | CCCc1c(OCCCCn2nnnc2Cc2ccc(C(=O)O)cc2)ccc(C(C)=O)c1O [Example 68] | –
5.20 | CCCc1c(OCCCc2nnnn2CCCCC(=O)O)ccc(C(C)=O)c1O [Example 61, 5-[3-(4-Acetyl-3-hydroxy-2-(n-propyl)phenoxy)propyl]-1H-tetrazole-1-[5-pentanoic acid]] | –
6.54 | CCCc1c(OCCCCCCc2nnnn2CCCC(=O)O)ccc(C(C)=O)c1O [Example 50] | 17.3 mg/kg
7.15 | CCCc1c(OCCCCc2nnn(CCCCC(=O)O)n2)ccc(C(C)=O)c1O [Example 48, 5-[4-(4-Acetyl-3-hydroxy-2-propylphenoxy)butyl]-2H-tetrazol-2-(5-pentanoic acid)] | 9.9 mg/kg
